Calls of active or inactive are those of the source. No cut-off for these calls is given here.
Assays:
SF-268 = experiment: Growth inhibition of human SF268 cells at 10 uM after 48 hrs by SRB assay relative to control; assay type: functional; settings: SF-268, 48 h, read-out: GI
OVCAR-4 = experiment: Growth inhibition of human OVCAR4 cells at 10 uM after 48 hrs by SRB assay relative to control; assay type: functional; settings: OVCAR-4, 48 h, read-out: GI
OVCAR-8 = experiment: Growth inhibition of human OVCAR8 cells at 10 uM after 48 hrs by SRB assay relative to control; assay type: functional; settings: for inhibition of growth at 10 µM: OVCAR-8, 48 h, read-out: GI
[1] = target: T1, M-phase inducer phosphatase 2 (Homo sapiens, UniProt P30305); experiment: Inhibition of human CDC25B using OMFP as substrate after 15 mins by fluorescence assay
T1 sequence (P30305 whole entry): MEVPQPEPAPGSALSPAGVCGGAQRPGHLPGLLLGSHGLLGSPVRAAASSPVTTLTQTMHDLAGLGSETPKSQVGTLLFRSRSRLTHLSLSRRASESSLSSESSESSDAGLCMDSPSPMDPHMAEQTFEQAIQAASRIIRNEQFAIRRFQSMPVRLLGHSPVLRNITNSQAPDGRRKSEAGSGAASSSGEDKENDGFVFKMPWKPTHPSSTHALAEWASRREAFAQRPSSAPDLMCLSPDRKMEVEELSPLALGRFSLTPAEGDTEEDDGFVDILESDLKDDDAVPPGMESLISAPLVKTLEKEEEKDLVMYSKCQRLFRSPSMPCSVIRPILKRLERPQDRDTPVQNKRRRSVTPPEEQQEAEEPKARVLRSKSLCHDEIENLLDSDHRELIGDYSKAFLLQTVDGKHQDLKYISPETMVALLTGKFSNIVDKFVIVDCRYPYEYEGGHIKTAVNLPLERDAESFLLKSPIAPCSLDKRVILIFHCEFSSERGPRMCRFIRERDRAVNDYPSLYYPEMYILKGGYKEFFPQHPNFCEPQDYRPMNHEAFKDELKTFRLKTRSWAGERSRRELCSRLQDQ

Malme-3M = experiment: Growth inhibition of human MALME-3M cells at 10 uM after 48 hrs by SRB assay relative to control; assay type: functional; settings: read-out: GI
UACC-257 = experiment: Growth inhibition of human UACC257 cells at 10 uM after 48 hrs by SRB assay relative to control; assay type: functional
KM12 = experiment: Growth inhibition of human KM12 cells at 10 uM after 48 hrs by SRB assay relative to control; assay type: functional; settings: KM12, 48 h, read-out: GI
CAKI-1 = experiment: Growth inhibition of human Caki1 cells at 10 uM after 48 hrs by SRB assay relative to control; assay type: functional; settings: CAKI-1, 48 h, read-out: GI
U-251 = experiment: Growth inhibition of human U251 cells at 10 uM after 48 hrs by SRB assay relative to control; assay type: functional; settings: U-251, 48 h, read-out: GI
SNB-19 = experiment: Growth inhibition of human SNB19 cells at 10 uM after 48 hrs by SRB assay relative to control; assay type: functional; settings: for inhibition of growth at 10 µM: SNB-19, 48 h, read-out: GI
OVCAR-3 = experiment: Growth inhibition of human OVCAR3 cells at 10 uM after 48 hrs by SRB assay relative to control; assay type: functional; settings: for inhibition of growth at 10 µM: OVCAR-3, 48 h, read-out: GI
SK-MEL-5 = experiment: Growth inhibition of human SK-MEL-5 cells at 10 uM after 48 hrs by SRB assay relative to control; assay type: functional; settings: SK-MEL-5, 48 h, read-out: GI
UACC-62 = experiment: Growth inhibition of human UACC62 cells at 10 uM after 48 hrs by SRB assay relative to control; assay type: functional; settings: UACC-62, 48 h, read-out: GI
SR = experiment: Growth inhibition of human SR cells at 10 uM after 48 hrs by SRB assay relative to control; assay type: functional; settings: read-out: GI
HCT-116 = experiment: Growth inhibition of human HCT116 cells at 10 uM after 48 hrs by SRB assay relative to control; assay type: functional; settings: for inhibition of growth at 10 µM: HCT-116, 48 h, read-out: GI

SMILES	inhibition of growth at 10 µM (SF-268) [%]	inhibition of growth at 10 µM (OVCAR-4) [%]	growth inhibition (GI) (OVCAR-8)	IC50 [1] [µM]	inhibition of growth at 10 µM (Malme-3M) [%]	growth inhibition (GI) (UACC-257)	inhibition of growth at 10 µM (KM12) [%]	inhibition of growth at 10 µM (CAKI-1) [%]	inhibition of growth at 10 µM (U-251) [%]	inhibition of growth at 10 µM (SNB-19) [%]	inhibition of growth at 10 µM (OVCAR-3) [%]	inhibition of growth at 10 µM (SK-MEL-5) [%]	inhibition of growth at 10 µM (UACC-62) [%]	inhibition of growth at 10 µM (SR) [%]	inhibition of growth at 10 µM (HCT-116) [%]	inhibition of growth at 10 µM (OVCAR-8) [%]	growth inhibition (GI) (SNB-19)	growth inhibition (GI) (HCT-116)	growth inhibition (GI) (OVCAR-3)	inhibition of growth at 10 µM (UACC-257; UACC-257, 48 h, read-out: GI) [%]
COc1ccc(Cc2nnc(SCC(=O)Nc3ccc(Cl)cc3)n2Cc2ccccc2)cc1	12	11.8	inactive	8.4	5.6	inactive	16.7	21.4	5.5	6.27	3	4.45	38	25.7	11					
COc1ccc(Cc2nnc(SCC(=O)c3ccc(Cl)cc3)n2-c2ccc(C)cc2)cc1	1.22	18.6		17.3	12	inactive	7.12	6.12	10.4		4.28	1.52	5.42	20		1.7	inactive	inactive		
COc1ccc(Cc2nnc(SCC(=O)Nc3ccc(Cl)cc3)n2-c2ccccc2)cc1	12.6	1.8	inactive	22.5	11.7	inactive	14.5	13.7	4.12	3		3.39	18.8	31.2	2				inactive	
COc1ccc(Cc2nnc(SCC(=O)c3ccc(Cl)cc3)n2Cc2ccccc2)cc1	11.8	10		6.7	3		10	23.7	8.87	9.2	18.4	5.52	14.8	22.2	11.6	10				6.9
COc1ccc(Cc2nnc(SCC(=O)c3ccc(Cl)cc3)n2-c2ccccc2)cc1	3.38	22	inactive	20.1	16.9	inactive	5.87	13.5	10.1	5	4.64	7	13.7	24.1				inactive		

— ChEMBL document CHEMBL4190322, “Structure-based development of novel triazoles and related thiazolotriazoles as anticancer agents and Cdc25A/B phosphatase inhibitors. Synthesis, in vitro biological evaluation, molecular docking and in silico ADME-T studies” (Eur J Med Chem, 2017)
